Experimental data: US20020028255A1, “Pesticide treatment” (priority 1998, published 2002)

Legend:
[1] = Decomposition of DKN in bleach, followed by TLC; type: physicochemical; details: 1 g in 25 ml bleach (14 to 15% chlorine), ambient temperature, after 30 minutes
Procedure: 2-Cyano-3-cyclopropyl-1-2-methylsulphonyl-4-trifluoromethylphenyl)propan-1,3-dione(DKN:1 g) was added to 25 ml of bleach (containing 14 to 15% chlorine). The mixture was stirred at ambient temperature. After 3 minutes a clear solution formed. […] The main product was the corresponding benzoic acid.

[2] = Kinetics of decomposition of the dione in water in the presence of chlorine (ppm); type: physicochemical
Description: (A) The kinetics of the decomposition of 2-cyano-3-cyclopropyl-1-(2-methylsulphonyl-4-trifluoromethylphenyl)propan-1,3-dione in water was studied. The following Table summarizes the results obtained at pH7 or pH9 in the presence of 0.1 or 0.5 ppm of chlorine. The percentages given are of degradation of the dione to the corresponding benzoic acid, 2-methylsulphonyl-4-trifluoromethyl-benzoic acid.

[3] = Cleaning of a contaminated 1000 l tank with sodium hypochlorite solution; type: physicochemical; details: tank wet with 0.02% (w/w) suspension; 10 l of 0.01% (w/w) sodium hypochlorite, one hour
Description: A 1000 l container or tank was used to prepare a suspension of dione pesticide (2-cyano-3-cyclopropyl- 1-(2-methylsulphonyl-4-trifluoromethylphenyl)propan-1,3-dione). The suspension was used to destroy the weeds in a crop growing area. The container was then still wet with aqueous suspension of 0.02% (w/w) of the pesticide.
10 l of 0.01% (w/w) solution of sodium hypochlorite is poured into the tank and stirred (so as to contact the whole inner surface of the container) and left for one hour.
Example 3 is repeated except that the pesticide is an isoxazole (5-cyclopropyl-4-(2-methylsulphonyl-4-trifluoromethylbenzoyl)isoxazole;IFT) and the pH of the hypochlorite solution is 8.5 (adjusted using NaOH).

[4] = Vials of dione solution in water (500 ppt) treated with water containing chlorine (ppb); type: physicochemical; details: dione 500 ppt, ambient temperature
Procedure: (B) Vials containing 1 ml of solutions in water of the dione used in (A) (at a concentration of 500 ppt) were treated at ambient temperature with 1 ml of water containing 0.1 or 0.5 ppb concentrations of chlorine.

[5] = system: Maize (Pioneer 3394) seeds; experiment: Damage (bleaching of the shoot) to maize seeds bathed in herbicide solutions, control vs hypochlorite-sterilized seed; type: in vivo; details: for damage to maize: low concentration
Procedure: Maize (Pioneer 3394) seeds were placed in a solution of 1% (w/w) sodium hypochlorite for 30 seconds, then rinsed thoroughly for 5 minutes with sodium bicarbonate solution (5% w/w).
Replicates of 20 seeds from each treatment were placed in petri dishes and bathed in 25 ml of the following solutions for 24 hours (covered and incubated at 25° C. in a growth cabinet).
After 24 hours the seeds were removed from the bathing solutions, rinsed thoroughly in water and planted (in green light- as some of the seeds had started to produce a coleoptile which is sensitive to daylight). Seeds were planted in duplicate in 10 cm×10 cm pots containing non-sterile loam and were overhead watered 3 times daily.
Assessments were made 7 and 14 DAT (days after treatment).

[6] = control seed, 1.0 μg ml^−1, bathed 24 hours
[7] = control seed, 10.0 μg ml^−1, bathed 24 hours
[8] = sterilized seed (1% sodium hypochlorite), 1.0 μg ml^−1, bathed 24 hours
[9] = sterilized seed (1% sodium hypochlorite), 10.0 μg ml^−1, bathed 24 hours

## CS(=O)(=O)c1cc(C(F)(F)F)ccc1C(=O)C(C#N)C(=O)C1CC1 (stereo not drawn) [DKN]
[1]
  DKN remaining by thin layer chromatography: no DKN was detected
[2]; pH 7, Cl2 0.1 ppm, 15 min
  degradation of the dione to the corresponding benzoic acid: 100%
[2]; pH 7, Cl2 0.5 ppm, 15 min
  degradation of the dione to the corresponding benzoic acid: 100%
[2]; pH 9, Cl2 0.1 ppm, 15 min
  degradation of the dione to the corresponding benzoic acid: 50%
[2]; pH 9, Cl2 0.1 ppm, 60 min
  degradation of the dione to the corresponding benzoic acid: 100%
[2]; pH 9, Cl2 0.5 ppm, 15 min
  degradation of the dione to the corresponding benzoic acid: 100%
[3]
  disappearance of pesticide from the tank: All of the dione pesticide disappeared
[4]; pH 5, Cl2 0.1 ppb, 15 min
  degradation of the dione: 100%
[4]; pH 5, Cl2 0.5 ppb, 15 min
  degradation of the dione: 100%
[4]; pH 7, Cl2 0.1 ppb, 15 min
  degradation of the dione: 100%
[4]; pH 7, Cl2 0.5 ppb, 15 min
  degradation of the dione: 100%
[4]; pH 9, Cl2 0.1 ppb, 60 min
  degradation of the dione: >90%
[4]; pH 9, Cl2 0.5 ppb, 15 min
  degradation of the dione: 100%
[5]; [6]
  % Damage (bleaching of the shoot): 0%
[5]; [7]
  % Damage (bleaching of the shoot): 0%
[5]; control seed, 100.0 μg ml^−1, bathed 24 hours
  % Damage (bleaching of the shoot): 87%
[5]; 1 μg ml^−1
  damage to maize: No damage
[5]; [8]
  % Damage (bleaching of the shoot): 0%
[5]; [9]
  % Damage (bleaching of the shoot): 0%
[5]; sterilized seed (1% sodium hypochlorite), 100.0 μg ml^−1, bathed 24 hours
  % Damage (bleaching of the shoot): 11%

## CS(=O)(=O)c1cc(C(F)(F)F)ccc1C(=O)c1cnoc1C1CC1 [IFT, 5-cyclopropyl-4-(2-methylsulphonyl-4-trifluoromethylbenzoyl)isoxazole]
[5]; control seed, 0.1 μg ml^−1, bathed 24 hours
  % Damage (bleaching of the shoot): 0%
[5]; [6]
  % Damage (bleaching of the shoot): 20%
[5]; [7]
  % Damage (bleaching of the shoot): 98%
[5]; 0.1 μg ml^−1
  damage to maize: No damage
[5]; sterilized seed (1% sodium hypochlorite), 0.1 μg ml^−1, bathed 24 hours
  % Damage (bleaching of the shoot): 0%
[5]; [8]
  % Damage (bleaching of the shoot): 13%
[5]; [9]
  % Damage (bleaching of the shoot): 100%
